The numbers were not newly measured in US20110294879A1, “METHOD OF TREATMENT OF FRAGILE X SYNDROME, DOWN'S SYNDROME, AUTISM AND RELATED DISORDERS” (XENOPORT, INC., priority 2010, published 2011), which cites them from elsewhere.

The subject of one data set is Fmr KO mice. The following applies: Bear et al patents.
Data set [1] concerns subjects with FXS and comorbid autistic disorder.
For data set [2] the following is noted: humans.

Take `Cc1cccc(C#Cc2ccccc2)n1` [MPEP, 2-methyl-6-(phenylethynyl)-pyridine]: the “behavioral and developmental phenotypes” value in the data set with Fmr KO mice is “reverse behavioral and developmental phenotypes”.
On to `CC(=O)NCCCS(=O)(=O)O` [CAMPRAL, acamprosate calcium], for which the “adverse GI events” value in data set [1] (fragile X subjects treated in the study) is reported as “observed in the majority of fragile X subjects”. Also, the “Clinical Global Impression (CGI-I)” value in data set [1] (subjects with FXS and comorbid autistic disorder, Erickson et al 2010) is “significant symptomatic improvements”.
In the case of `CC(=O)NCCCS(=O)(=O)O` [acamprosate, 3-(Acetylamino)propylsulfonic acid], the oral bioavailability result in data set [2] is on record as “about 11%”.
As to `Cc1nc2n(c(=O)c1CCN1CCC(c3noc4cc(F)ccc34)CC1)CCCC2` [risperidone], the “social isolation and communication” value in the data set on autistic children is recorded as “not improved”. Moreover, the “irritability subscale of the Aberrant Behavior Checklist and Clinical Global Impressions-Improvement” value in the data set with autistic children (McCracken et al 2002) is recorded as “significant improvement”.
